#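 Briefly, cells in 96-well plates were exposed to five compound concentrations for 48 h, and endpoints were estimated by linear interpolation. Abbreviation: GI50, concentration required for 50% inhibition of growth.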 Active and inactive are the calls of the source. No stated cut-off is given here; in the data, active = GI50 up to about 1.1 µM and inactive = higher.
# How the values were obtained:
# Assay in all cases: inhibition of tumour cell growth, NCI panel, 48 h
# [1] = system: U-251
# [2] = system: SNB-78
# [3] = system: OVCAR-8
# [4] = system: COLO 205
# [5] = system: SF-539
# [6] = system: M19-MEL
# [7] = system: NCI-H226
# [8] = system: SW-620
# [9] = system: SK-MEL-2
# [10] = system: RXF 393
# [11] = system: SF-295
# [12] = system: HOP-62
# [13] = system: UACC-257
# [14] = system: HL-60
# [15] = system: HCT-116
# [16] = system: MDA-MB-435
# [17] = system: DU-145
# [18] = system: MDA-N
# [19] = system: SR
# [20] = system: PC-3
SMILES,GI50 [1],GI50 [2],GI50 [3],GI50 [4],GI50 [5],GI50 [6],GI50 [7],GI50 [8],GI50 [9],GI50 [10],GI50 [11],GI50 [12],GI50 [13],GI50 [14],GI50 [15],GI50 [16],GI50 [17],GI50 [18],GI50 [19],GI50 [20]
COC(=O)N/N=C(\C)CC(=O)Nc1cccc([N+](=O)[O-])c1,> 100 µM (inactive),> 100 µM (inactive),> 100 µM (inactive),> 100 µM (inactive),> 100 µM (inactive),> 100 µM (inactive),> 100 µM (inactive),> 100 µM (inactive),> 100 µM (inactive),> 100 µM (inactive),> 100 µM (inactive),> 100 µM (inactive),> 100 µM (inactive),> 100 µM (inactive),> 100 µM (inactive),,,,,
COc1cc2cc(C(=O)N3C[C@H](CCl)c4c3cc(N)c3ccccc43)[nH]c2c(OC)c1OC,0.279 µM (active),,0.447 µM (active),0.0173 µM (active),0.0284 µM (active),,9.51 µM (inactive),0.0233 µM (active),2.05 µM (inactive),0.571 µM (active),2.61 µM (inactive),3.05 µM (inactive),1.6 µM (inactive),0.0586 µM (active),0.00695 µM (active),0.00577 µM (active),0.409 µM (active),< 0.01 µM (active),8.28 µM (inactive),0.0507 µM (active)
O=C(O)c1cc(/N=C/c2ccccc2O)cc(C(=O)O)c1,> 100 µM (inactive),,> 100 µM (inactive),> 100 µM (inactive),> 100 µM (inactive),,> 100 µM (inactive),> 100 µM (inactive),> 100 µM (inactive),> 100 µM (inactive),> 100 µM (inactive),> 100 µM (inactive),> 100 µM (inactive),> 100 µM (inactive),> 100 µM (inactive),> 100 µM (inactive),> 100 µM (inactive),> 100 µM (inactive),> 100 µM (inactive),> 100 µM (inactive)
COC(=O)C(CC(=O)Nc1ccc(C)cc1)C(=O)C(=O)Nc1c(C(C)C)cccc1C(C)C (configuration not stated),> 100 µM (inactive),> 100 µM (inactive),> 100 µM (inactive),> 100 µM (inactive),> 100 µM (inactive),> 100 µM (inactive),> 100 µM (inactive),> 100 µM (inactive),> 100 µM (inactive),> 100 µM (inactive),,> 100 µM (inactive),,> 100 µM (inactive),> 100 µM (inactive),,,,,
O=C(O)CCC(NC(=O)c1ccc(Oc2nc3ccccc3nc2-c2ccccc2)cc1)C(=O)O (configuration not stated),> 100 µM (inactive),,> 100 µM (inactive),> 100 µM (inactive),> 100 µM (inactive),,> 100 µM (inactive),> 100 µM (inactive),> 100 µM (inactive),> 100 µM (inactive),> 100 µM (inactive),> 100 µM (inactive),> 100 µM (inactive),> 100 µM (inactive),> 100 µM (inactive),> 100 µM (inactive),> 100 µM (inactive),> 100 µM (inactive),> 100 µM (inactive),> 100 µM (inactive)
O=[N+]([O-])c1ccc(NSc2ccccc2)cc1,29.7 µM (inactive),38.3 µM (inactive),19.8 µM (inactive),30.7 µM (inactive),18.7 µM (inactive),,,24.2 µM (inactive),42.9 µM (inactive),20 µM (inactive),27.6 µM (inactive),33.3 µM (inactive),29.3 µM (inactive),15 µM (inactive),25.2 µM (inactive),,,,10.7 µM (inactive),
COc1ccc(CCn2c(=O)c3ccccc3n(C)c2=O)cc1,66.8 µM (inactive),36.5 µM (inactive),58.6 µM (inactive),13.1 µM (inactive),41.6 µM (inactive),19.3 µM (inactive),,15.9 µM (inactive),20.5 µM (inactive),,30.2 µM (inactive),26.4 µM (inactive),61.7 µM (inactive),,38.7 µM (inactive),,,,,
COc1cc(C(N)=O)c(OC)c(OC)c1OC,> 100 µM (inactive),> 100 µM (inactive),> 100 µM (inactive),> 100 µM (inactive),> 100 µM (inactive),> 100 µM (inactive),> 100 µM (inactive),> 100 µM (inactive),> 100 µM (inactive),> 100 µM (inactive),> 100 µM (inactive),> 100 µM (inactive),,> 100 µM (inactive),> 100 µM (inactive),,,,,
NC(=S)N/N=C1\C(=O)N(c2cccc([N+](=O)[O-])c2)C(=O)C1C(=O)Nc1cccc([N+](=O)[O-])c1 (configuration not stated),> 100 µM (inactive),> 100 µM (inactive),> 100 µM (inactive),> 100 µM (inactive),> 100 µM (inactive),> 100 µM (inactive),> 100 µM (inactive),> 100 µM (inactive),> 100 µM (inactive),> 100 µM (inactive),> 100 µM (inactive),> 100 µM (inactive),> 100 µM (inactive),38.4 µM (inactive),> 100 µM (inactive),,,,,
